Experimental data from the supplement of paper PMC11451515.

System: NOMO1
Assay: cell viability relative to DMSO control; higher = less cytotoxic
Details: 48 h
Summary of the method: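 Viability, reported as a per-plate percentage of DMSO wells with cell-free wells as background, came from CellTiter-Glo One luminescence. Reading took place after 48 h at 37°C. Before that, NOMO1 or SEM (500 cells/well) or P12-Ichikawa (1000 cells/well) leukemia cells, adapted for at least four passages in each medium, were seeded in 1536-well plates (5 μl) and pin-dosed with library compounds in DMSO, 47 μM to 0.79 nM over 11 threefold points.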

[1] = RPMI 5 mM glucose + 10% FBS, 0.000781 µM
[2] = RPMI 5 mM glucose + 10% FBS, 0.00234 µM
[3] = RPMI 5 mM glucose + 10% FBS, 0.00702 µM
[4] = RPMI 5 mM glucose + 10% FBS, 0.0211 µM
[5] = RPMI 5 mM glucose + 10% FBS, 0.0632 µM
[6] = RPMI 5 mM glucose + 10% FBS, 0.19 µM
[7] = RPMI 5 mM glucose + 10% FBS, 0.569 µM
[8] = RPMI 5 mM glucose + 10% FBS, 1.71 µM
[9] = RPMI 5 mM glucose + 10% FBS, 5.12 µM
[10] = RPMI 5 mM glucose + 10% FBS, 15.4 µM
[11] = RPMI 5 mM glucose + 10% FBS, 46.1 µM
[12] = RPMI 5 mM glucose + 10% dialyzed FBS, 0.000781 µM
[13] = RPMI 5 mM glucose + 10% dialyzed FBS, 0.00234 µM
[14] = RPMI 5 mM glucose + 10% dialyzed FBS, 0.00702 µM
[15] = RPMI 5 mM glucose + 10% dialyzed FBS, 0.0211 µM
[16] = RPMI 5 mM glucose + 10% dialyzed FBS, 0.0632 µM
[17] = RPMI 5 mM glucose + 10% dialyzed FBS, 0.19 µM
[18] = RPMI 5 mM glucose + 10% dialyzed FBS, 0.569 µM
[19] = RPMI 5 mM glucose + 10% dialyzed FBS, 1.71 µM
[20] = RPMI 5 mM glucose + 10% dialyzed FBS, 5.12 µM
[21] = RPMI 5 mM glucose + 10% dialyzed FBS, 15.4 µM
[22] = RPMI 5 mM glucose + 10% dialyzed FBS, 46.1 µM

SMILES | cell viability [1] [%] | cell viability [2] [%] | cell viability [3] [%] | cell viability [4] [%] | cell viability [5] [%] | cell viability [6] [%] | cell viability [7] [%] | cell viability [8] [%] | cell viability [9] [%] | cell viability [10] [%] | cell viability [11] [%] | cell viability (HPLM + 10% dialyzed FBS, 0.000781 µM) [%] | cell viability (HPLM + 10% dialyzed FBS, 0.00234 µM) [%] | cell viability (HPLM + 10% dialyzed FBS, 0.00702 µM) [%] | cell viability (HPLM + 10% dialyzed FBS, 0.0211 µM) [%] | cell viability (HPLM + 10% dialyzed FBS, 0.0632 µM) [%] | cell viability (HPLM + 10% dialyzed FBS, 0.19 µM) [%] | cell viability (HPLM + 10% dialyzed FBS, 0.569 µM) [%] | cell viability (HPLM + 10% dialyzed FBS, 1.71 µM) [%] | cell viability (HPLM + 10% dialyzed FBS, 5.12 µM) [%] | cell viability (HPLM + 10% dialyzed FBS, 15.4 µM) [%] | cell viability (HPLM + 10% dialyzed FBS, 46.1 µM) [%] | cell viability [12] [%] | cell viability [13] [%] | cell viability [14] [%] | cell viability [15] [%] | cell viability [16] [%] | cell viability [17] [%] | cell viability [18] [%] | cell viability [19] [%] | cell viability [20] [%] | cell viability [21] [%] | cell viability [22] [%]
C[C@]12CC[C@@H]3c4ccc(O)cc4C[C@@H](CCCCCCCCC[S+]([O-])CCCC(F)(F)C(F)(F)F)[C@H]3[C@@H]1CC[C@@H]2O (some centres not stated) | 103 | 118 | 104 | 131 | 121 | 113 | 107 | 104 | 115 | 118 | 104 |  |  |  |  |  |  |  |  |  |  |  |  |  |  |  |  |  |  |  |  |  | 
Cc1cc2c(F)c(Oc3ncnn4cc(OC[C@@H](C)O)c(C)c34)ccc2[nH]1 | 86.5 | 103 | 101 | 105 | 98.2 | 98.1 | 94.1 | 88.6 | 88.8 | 97 | 83.6 | 107 | 87.6 | 103 | 103 | 97.5 | 90.4 | 99.2 | 101 | 98.4 | 88.9 | 69.6 | 88.5 | 104 | 102 | 92 | 90.3 | 100 | 98.7 | 84.9 | 109 | 79.8 | 67.1
CC(C)C[C@@H](C=O)NC(=O)[C@H](CC(C)C)NC(=O)[C@H](CC(C)C)NC(=O)OCc1ccccc1 | 115 | 119 | 130 | 143 | 134 | 128 | 78.1 | 42.1 | 10.2 | 8.45 | 7.38 |  |  |  |  |  |  |  |  |  |  |  |  |  |  |  |  |  |  |  |  |  | 
C=CC(=O)N1CCC[C@@H](n2nc(-c3ccc(Oc4ccccc4)cc3)c3c(N)ncnc32)C1 | 117 | 117 | 113 | 101 | 110 | 99.2 | 110 | 107 | 132 | 108 | 121 |  |  |  |  |  |  |  |  |  |  |  | 122 | 123 | 113 | 102 | 119 | 113 | 118 | 117 | 120 | 129 | 95.9
C[S+]([O-])(=O)C1=CC=C(C=C1)C/2=C(/C(=O)OC2)C3=CC=CC=C3 | 106 | 110 | 118 | 109 | 120 | 115 | 118 | 119 | 114 | 108 | 123 |  |  |  |  |  |  |  |  |  |  |  | 107 | 118 | 106 | 111 | 121 | 118 | 123 | 120 | 108 | 131 | 129
N#Cc1c(NC(=O)c2cccc3ccccc23)sc2c1CCCC2 | 120 | 142 | 118 | 128 | 139 | 134 | 127 | 25.4 | 26.1 | 21.7 | 21 |  |  |  |  |  |  |  |  |  |  |  |  |  |  |  |  |  |  |  |  |  | 
Cc1cn([C@@H]2O[C@H](CO)[C@@H](O)[C@@H]2F)c(=O)[nH]c1=O | 93.5 | 108 | 102 | 117 | 114 | 121 | 110 | 115 | 109 | 113 | 29 |  |  |  |  |  |  |  |  |  |  |  | 86.1 | 120 | 114 | 108 | 123 | 119 | 127 | 120 | 103 | 126 | 22.4
